Reference: ChEMBL document CHEMBL4261501, “Design, synthesis and biological evaluation of imidazopyridine-propenone conjugates as potent tubulin inhibitors” (Medchemcomm, 2017)
The source made the active and inactive calls. The rule behind the calls is not given here.

How the values were obtained:
MCF7 = assay: cells; conditions: Homo sapiens, MCF7, 48 h
Description: Cytotoxicity against human MCF7 cells after 48 hrs by MTT assay

A549 [1] = assay: cells; conditions: Homo sapiens, A549, 48 h
Description: Cytotoxicity against human A549 cells after 48 hrs by MTT assay

HeLa = assay: cells; conditions: Homo sapiens, 48 h
Description: Cytotoxicity against human HeLa cells after 48 hrs by MTT assay

DU-145 = assay: Cytotoxicity against human DU145 cells after 48 hrs by MTT assay; type: functional, cell-based; conditions: DU-145, 48 h
A549 [2] = assay: Cell cycle arrest in human A549 cells assessed as accumulation at S phase at 1 uM after 48 hrs by propidium iodide staining based flow cytometry (reference value: 1.92%); type: functional
A549 [3] = assay: Induction of apoptosis in human A549 cells assessed as formation of apoptotic bodies at 0.5 uM after 48 hrs by Hoechst 33258 staining based fluorescence microscopic analysis; type: functional, cell-based
Tubulin (Homo sapiens) = Tubulin (Homo sapiens) (UniProt P68371+Q9H4B7+P0DPH7+P68366+Q13509+Q71U36+P04350+Q3ZCM7+P07437+P68363+Q9BQE3+Q6PEY2+Q13885+Q9BVA1+Q9BUF5); assay: Inhibition of tubulin polymerization (unknown origin) at 3 uM after 1 hr by fluorescence assay relative to control; type: protein-complex assay
A549 [4] = assay: Induction of mitochondrial membrane potential loss in human A549 cells assessed as collapse of the mitochondrial membrane potential at 0.5 uM after 48 hrs by JC1 staining based flow cytomtery (reference value: 3.5%); type: functional
A549 [5] = assay: Induction of apoptosis in human A549 cells assessed as live cells at 1 uM after 48 hrs by Annexin V-FITC/propidium iodide staining based flow cytometry (reference value: 93.97%); type: functional
A549 [6] = assay: Induction of apoptosis in human A549 cells assessed as early apoptotic cells at 1 uM after 48 hrs by Annexin V-FITC/propidium iodide staining based flow cytometry (reference value: 1.03%); type: functional
A549 [7] = assay: Induction of apoptosis in human A549 cells assessed as necrotic cells at 0.5 uM after 48 hrs by Annexin V-FITC/propidium iodide staining based flow cytometry (reference value: 1.17%); type: functional
A549 [8] = assay: Induction of apoptosis in human A549 cells assessed as necrotic cells at 1 uM after 48 hrs by Annexin V-FITC/propidium iodide staining based flow cytometry (reference value: 1.17%); type: functional
A549 [9] = assay: Cell cycle arrest in human A549 cells assessed as accumulation at sub-G1 phase at 1 uM after 48 hrs by propidium iodide staining based flow cytometry (reference value: 1.11%); type: functional
A549 [10] = assay: Induction of mitochondrial membrane potential loss in human A549 cells assessed as collapse of the mitochondrial membrane potential at 1 uM after 48 hrs by JC1 staining based flow cytomtery (reference value: 3.5%); type: functional
A549 [11] = assay: Induction of apoptosis in human A549 cells assessed as live cells at 0.5 uM after 48 hrs by Annexin V-FITC/propidium iodide staining based flow cytometry (reference value: 93.97%); type: functional
A549 [12] = assay: Induction of apoptosis in human A549 cells assessed as nuclear fragmentation at 0.5 uM after 48 hrs by Hoechst 33258 staining based fluorescence microscopic analysis; type: functional, cell-based
A549 [13] = assay: Cell cycle arrest in human A549 cells assessed as accumulation at G0/G1 phase at 0.5 uM after 48 hrs by propidium iodide staining based flow cytometry (reference value: 90.52%); type: functional
A549 [14] = assay: Induction of apoptosis in human A549 cells assessed as cytoplasmic condensation at 0.5 uM after 48 hrs by Hoechst 33258 staining based fluorescence microscopic analysis; type: functional, cell-based
Tubulin = assay: Inhibition of tubulin polymerization (unknown origin) after 1 hr by fluorescence assay; type: protein-complex assay, Homo sapiens
A549 [15] = assay: Cell cycle arrest in human A549 cells assessed as accumulation at G2/M phase at 0.5 uM after 48 hrs by propidium iodide staining based flow cytometry (reference value: 7.4%); type: functional
A549 [16] = assay: Cell cycle arrest in human A549 cells assessed as accumulation at S phase at 0.5 uM after 48 hrs by propidium iodide staining based flow cytometry (reference value: 1.92%); type: functional
A549 [17] = assay: Cell cycle arrest in human A549 cells assessed as accumulation at sub-G1 phase at 0.5 uM after 48 hrs by propidium iodide staining based flow cytometry (reference value: 1.11%); type: functional
A549 [18] = assay: Induction of mitochondrial membrane potential loss in human A549 cells assessed as intact mitochondrial membrane at 0.5 uM after 48 hrs by JC1 staining based flow cytomtery (reference value: 96.3%); type: functional
A549 [19] = assay: Disruption of microtubule organization in human A549 cells at 0.5 uM after 48 hrs by fluorescence microscopic analysis; type: cell-based
A549 [20] = assay: Induction of apoptosis in human A549 cells assessed as late apoptotic cells at 0.5 uM after 48 hrs by Annexin V-FITC/propidium iodide staining based flow cytometry (reference value: 3.83%); type: functional
A549 [21] = assay: Induction of apoptosis in human A549 cells assessed as late apoptotic cells at 1 uM after 48 hrs by Annexin V-FITC/propidium iodide staining based flow cytometry (reference value: 3.83%); type: functional
A549 [22] = assay: Cell cycle arrest in human A549 cells assessed as accumulation at G2/M phase at 1 uM after 48 hrs by propidium iodide staining based flow cytometry (reference value: 7.4%); type: functional
A549 [23] = assay: Induction of mitochondrial membrane potential loss in human A549 cells assessed as intact mitochondrial membrane at 1 uM after 48 hrs by JC1 staining based flow cytomtery (reference value: 96.3%); type: functional
A549 [24] = assay: Induction of apoptosis in human A549 cells assessed as early apoptotic cells at 0.5 uM after 48 hrs by Annexin V-FITC/propidium iodide staining based flow cytometry (reference value: 1.03%); type: functional
A549 [25] = assay: Cell cycle arrest in human A549 cells assessed as accumulation at G0/G1 phase at 1 uM after 48 hrs by propidium iodide staining based flow cytometry (reference value: 90.52%); type: functional

SMILES: COc1ccc(N/C=C\C(=O)c2c(-c3ccccc3)nc3ccccn23)cc1
- IC50 (MCF7): 7.61 µM
- IC50 (A549 [1]): 1.57 µM
- IC50 (HeLa): 14.9 µM
- IC50 (DU-145): 2.19 µM

SMILES: O=C(/C=C\Nc1cnc2ccccc2c1)c1c(-c2ccc(Cl)cc2)nc2ccccn12
- IC50 (MCF7): 18.9 µM
- IC50 (A549 [1]): 2.88 µM
- IC50 (HeLa): 3.71 µM
- IC50 (DU-145): 4.17 µM

SMILES: COc1ccc(-c2nc3ccccn3c2C(=O)/C=C\Nc2ccc(Br)cc2)cc1
- IC50 (MCF7): 9.83 µM
- IC50 (A549 [1]): 1.35 µM
- IC50 (HeLa): 4.54 µM
- IC50 (DU-145): 1.45 µM

SMILES: O=C(/C=C\Nc1ccc2[nH]ccc2c1)c1c(-c2ccc(Cl)cc2)nc2ccccn12
- IC50 (MCF7): 7.12 µM
- IC50 (A549 [1]): 1.01 µM
- IC50 (HeLa): 3.24 µM
- IC50 (DU-145): 1.29 µM

SMILES: O=C(/C=C\Nc1ccc2cc[nH]c2c1)c1c(-c2ccc(Cl)cc2)nc2ccccn12
- IC50 (MCF7): 9.6 µM
- IC50 (A549 [1]): 2.29 µM
- IC50 (HeLa): 10.9 µM
- IC50 (DU-145): 2.63 µM

SMILES: O=C(/C=C\Nc1ccc(Br)cc1)c1c(-c2ccccc2)nc2ccccn12
- IC50 (MCF7): 8.67 µM
- IC50 (A549 [1]): 1.35 µM
- IC50 (HeLa): 2.04 µM
- IC50 (DU-145): 1.82 µM

SMILES: COc1ccc(-c2nc3ccccn3c2C(=O)/C=C\Nc2ccc(F)cc2)cc1
- IC50 (MCF7): 13 µM
- IC50 (A549 [1]): 3.25 µM
- IC50 (HeLa): 11 µM
- IC50 (DU-145): 6.13 µM

SMILES: COc1ccc(-c2nc3ccccn3c2C(=O)/C=C\Nc2cc(OC)cc(OC)c2)cc1
- IC50 (MCF7): 14.9 µM
- IC50 (A549 [1]): 4.47 µM
- IC50 (HeLa): 4.57 µM
- IC50 (DU-145): 6.26 µM

SMILES: COc1ccc(-c2nc3ccccn3c2C(=O)/C=C\Nc2ccc3[nH]ccc3c2)cc1
- IC50 (MCF7): 18.9 µM
- IC50 (A549 [1]): 11 µM
- IC50 (HeLa): 13.6 µM
- IC50 (DU-145): 11.3 µM

SMILES: O=C(/C=C\Nc1ccc(Br)cc1)c1c(-c2ccc(Cl)cc2)nc2ccccn12
- Activity (A549 [2]): 5.62%
- Activity (A549 [3]): Active
- inhibition (Tubulin (Homo sapiens)): 66.5%
- Activity (A549 [4]): 20.3%
- Activity (A549 [5]): 46.59 - 46.6%
- Activity (A549 [6]): 33.97 - 34%
- Activity (A549 [7]): 1.6 - 1.64%
- Activity (A549 [8]): 1.38 - 1.4%
- Activity (A549 [9]): 0.86%
- Activity (A549 [10]): 30.1%
- IC50 (MCF7): 2.69 µM
- Activity (A549 [11]): 66.5 - 66.51%
- Activity (A549 [12]): Active
- Activity (A549 [13]): 83.28%
- Activity (A549 [14]): Active
- IC50 (A549 [1]): 0.933 µM
- IC50 (Tubulin): 1.93 µM
- Activity (A549 [15]): 14.4%
- Activity (A549 [16]): 2.68%
- Activity (A549 [17]): 0.66%
- Activity (A549 [18]): 75.9%
- Activity (A549 [19]): Active
- IC50 (HeLa): 1.48 µM
- Activity (A549 [20]): 9.9 - 9.94%
- IC50 (DU-145): 1.5 µM
- Activity (A549 [21]): 18.06 - 18.1%
- Activity (A549 [22]): 29.84%
- Activity (A549 [23]): 63.9%
- Activity (A549 [24]): 21.9 - 21.91%
- Activity (A549 [25]): 65.94%

SMILES: COc1cc(N/C=C\C(=O)c2c(-c3ccccc3)nc3ccccn23)cc(OC)c1
- IC50 (MCF7): 10.2 µM
- IC50 (A549 [1]): 2.24 µM
- IC50 (HeLa): 3.09 µM
- IC50 (DU-145): 2.92 µM

SMILES: COc1cc(N/C=C\C(=O)c2c(-c3ccc(Cl)cc3)nc3ccccn23)cc(OC)c1OC
- IC50 (MCF7): 3.39 µM
- IC50 (A549 [1]): 1.14 µM
- IC50 (HeLa): 3.02 µM
- IC50 (DU-145): 3.25 µM

SMILES: COc1ccc(-c2nc3ccccn3c2C(=O)/C=C\Nc2cnc3ccccc3c2)cc1
- IC50 (MCF7): 15 µM
- IC50 (A549 [1]): 1.05 µM
- IC50 (HeLa): 9.44 µM
- IC50 (DU-145): 5.28 µM

SMILES: COc1cc(N/C=C\C(=O)c2c(-c3ccc(Cl)cc3)nc3ccccn23)cc(OC)c1
- IC50 (MCF7): 13.6 µM
- IC50 (A549 [1]): 9.9 µM
- IC50 (HeLa): 14.6 µM
- IC50 (DU-145): 12 µM

SMILES: COc1ccc(N/C=C\C(=O)c2c(-c3ccc(OC)cc3)nc3ccccn23)cc1
- IC50 (MCF7): 16.5 µM
- IC50 (A549 [1]): 12.7 µM
- IC50 (HeLa): 19.9 µM
- IC50 (DU-145): 11.1 µM

SMILES: COc1ccc(-c2nc3ccccn3c2C(=O)/C=C\Nc2ccc3cc[nH]c3c2)cc1
- IC50 (MCF7): 19.4 µM
- IC50 (A549 [1]): 8.8 µM
- IC50 (HeLa): 15.3 µM
- IC50 (DU-145): 10.7 µM

SMILES: O=C(/C=C\Nc1cnc2ccccc2c1)c1c(-c2ccccc2)nc2ccccn12
- IC50 (MCF7): 5.17 µM
- IC50 (A549 [1]): 1.75 µM
- IC50 (HeLa): 3.08 µM
- IC50 (DU-145): 2.44 µM

SMILES: COC(=O)Nc1nc2cc(C(=O)c3cccs3)ccc2[nH]1 [NOCODAZOLE]
- Activity (A549 [2]): 4.55%
- inhibition (Tubulin (Homo sapiens)): 66.8%
- Activity (A549 [5]): 51.48 - 51.5%
- Activity (A549 [6]): 31.19 - 31.2%
- Activity (A549 [8]): 1.1 - 1.11%
- Activity (A549 [9]): 0.79%
- Activity (A549 [10]): 22.6%
- IC50 (MCF7): 1.09 µM
- IC50 (A549 [1]): 1.39 µM
- Activity (A549 [19]): Active
- IC50 (HeLa): 1.61 µM
- IC50 (DU-145): 1.26 µM
- Activity (A549 [21]): 16.2 - 16.23%
- Activity (A549 [22]): 29.68%
- Activity (A549 [23]): 73.5%
- Activity (A549 [25]): 66.92%

SMILES: O=C(/C=C\Nc1ccc2ncccc2c1)c1c(-c2ccc(Cl)cc2)nc2ccccn12
- IC50 (MCF7): 22.8 µM
- IC50 (A549 [1]): 13 µM
- IC50 (HeLa): 16.4 µM
- IC50 (DU-145): 13.6 µM

SMILES: COc1ccc(-c2nc3ccccn3c2C(=O)/C=C\Nc2ccc3ncccc3c2)cc1
- IC50 (MCF7): 11.6 µM
- IC50 (A549 [1]): 1.21 µM
- IC50 (HeLa): 4.85 µM
- IC50 (DU-145): 4.72 µM

SMILES: COc1ccc(N/C=C\C(=O)c2c(-c3ccc(Cl)cc3)nc3ccccn23)cc1
- IC50 (MCF7): 16.3 µM
- IC50 (A549 [1]): 6.46 µM
- IC50 (HeLa): 11.8 µM
- IC50 (DU-145): 10.8 µM
